Structures can show the parent of a compound that is named as a salt.
Target: T1, LPL (lipoprotein lipase) (Mus musculus, UniProt P11152)
T1 construct: endogenous in cells; host or cells: C2C12 cells, differentiated
T1 sequence (P11152 28-474): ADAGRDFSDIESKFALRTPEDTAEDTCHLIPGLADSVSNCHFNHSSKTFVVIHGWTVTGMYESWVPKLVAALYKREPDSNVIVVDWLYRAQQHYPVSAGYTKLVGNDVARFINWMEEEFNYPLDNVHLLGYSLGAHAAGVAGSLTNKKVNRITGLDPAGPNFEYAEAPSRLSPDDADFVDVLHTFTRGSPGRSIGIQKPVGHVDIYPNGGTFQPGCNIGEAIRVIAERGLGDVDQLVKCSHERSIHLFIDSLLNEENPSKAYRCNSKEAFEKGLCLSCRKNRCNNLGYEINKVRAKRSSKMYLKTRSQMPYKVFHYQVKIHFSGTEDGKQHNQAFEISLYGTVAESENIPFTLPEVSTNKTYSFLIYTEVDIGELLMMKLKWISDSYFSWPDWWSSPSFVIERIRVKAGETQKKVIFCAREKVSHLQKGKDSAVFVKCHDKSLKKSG
Assay: Confirmation test of LPL activation effect in mouse skeletal muscle cells (C2C12 cells)
Format: cell-based
Settings: amount of addition 10 μM, 8 hours exposure, vs control group
Protocol: Human skeletal muscle cells (human skeletal muscle myoblasts) or mouse skeletal muscle cells (C2C12 cells) that were seeded onto plates, cultured, and differentiated were exposed to a 0.3% dimethyl sulfoxide-containing culture medium in which the compound of the present invention was dissolved (concentration: 10 μM or 30 μM). The medium was removed 8 hours after exposure, 10 mM of Tris-HCl buffer (150 mM NaCl, 10 μ/mL; containing heparin sodium) was added to the cells, and the cells were incubated at 37° C. in the presence of 5% CO2 for 10 minutes. LPL activity in the supernatant was measured using an LPL activity assay kit (made by Roar Biomedical Inc.). LPL activity was evaluated based on the increase in fluorescence intensity 10 to 70 minutes after mixing the supernatant with the LPL substrate. The mean value of the increase in fluorescence intensity of the cells exposed to a 0.3% dimethyl sulfoxide-containing culture medium […] was used as mean value of the control group. Note that the compounds of Examples 18, 19, 32, 45 and 57 were tested using human skeletal muscle cells, and other compounds were tested using mouse skeletal muscle cells. The rate of increase (%) was calculated from the measured values of LPL activity in the control group and the experimental group, according to the following formula. Rate of increase in LPL activity (%)=[(mean value of the experimental group)−(mean value of the control group)]/(mean value of the control group)×100
With `COc1cc(OCc2ccc(Br)cc2F)ccc1-c1c[nH]c(-c2ccc(F)c(Cl)c2)n1` [Example 103] the “Rate of increase in LPL activity” value was 30%. With `COc1cc(OCc2ccc(C(F)(F)F)cc2)ccc1-c1c[nH]c(-c2ccc(C(F)(F)F)cc2)n1` [Example 167] the “Rate of increase in LPL activity” value was 37%. For `COc1cc(-c2c[nH]c(-c3ccc(Cl)cc3)n2)ccc1OCc1ccc(C#N)cc1` [Example 77], the “Rate of increase in LPL activity” value was 54%. For `COc1cc(OCc2ccccc2)ccc1-c1c[nH]c(-c2ccc(Cl)cc2)n1` [Example 123], the “Rate of increase in LPL activity” value was 11%. In the case of `COc1cc(-c2c[nH]c(-c3ccc(C(F)(F)F)cc3)n2)ccc1OCc1ccc(Br)cc1F` [Example 1, 4-[4-(4-bromo-2-fluorobenzyloxy)-3-methoxyphenyl]-2-[4-(trifluoromethyl)phenyl]-1H-imidazole hydrochloride], the “Rate of increase in LPL activity” value is reported as 64%. For `COc1cc(-c2c[nH]c(-c3ccc(F)cc3)n2)ccc1OCc1ccc(C(F)(F)F)cc1` [Example 164], the “Rate of increase in LPL activity” value was 4%. For `COc1cc(-c2c[nH]c(-c3ccc(C(F)(F)F)cc3)n2)ccc1OCc1ccc(C(F)(F)F)cc1` [Example 165], the “Rate of increase in LPL activity” value was 38%.

Same assay, conditions: amount of addition 30 μM, 8 hours exposure, vs control group
With `COc1cc(OCc2ccc(Br)cc2F)ccc1-c1c[nH]c(-c2ccc(F)c(Cl)c2)n1` [Example 103] the “Rate of increase in LPL activity” value was 92%. In the case of `COc1cc(OCc2ccc(C(F)(F)F)cc2)ccc1-c1c[nH]c(-c2ccc(C(F)(F)F)cc2)n1` [Example 167], the “Rate of increase in LPL activity” value is reported as 104%. For `COc1cc(-c2c[nH]c(-c3ccc(Cl)cc3)n2)ccc1OCc1ccc(C#N)cc1` [Example 77], the “Rate of increase in LPL activity” value was 133%. In the case of `COc1cc(OCc2ccccc2)ccc1-c1c[nH]c(-c2ccc(Cl)cc2)n1` [Example 123], the “Rate of increase in LPL activity” value is reported as 42%. In the case of `COc1cc(-c2c[nH]c(-c3ccc(C(F)(F)F)cc3)n2)ccc1OCc1ccc(Br)cc1F` [Example 1, 4-[4-(4-bromo-2-fluorobenzyloxy)-3-methoxyphenyl]-2-[4-(trifluoromethyl)phenyl]-1H-imidazole hydrochloride], the “Rate of increase in LPL activity” value is reported as 360%. For `COc1cc(-c2c[nH]c(-c3ccc(F)cc3)n2)ccc1OCc1ccc(C(F)(F)F)cc1` [Example 164], the “Rate of increase in LPL activity” value was 228%. With `COc1cc(-c2c[nH]c(-c3ccc(C(F)(F)F)cc3)n2)ccc1OCc1ccc(C(F)(F)F)cc1` [Example 165] the “Rate of increase in LPL activity” value was 476%.

Tested on: not given
Assay: not given
Settings: not given
Molecule `COc1cc(OCc2ccc(Br)cc2F)ccc1-c1c[nH]c(-c2ccc(F)c(Cl)c2)n1` [Example 103] has a melting point of 237 to 243 °C. In the case of `COc1cc(OCc2ccccc2)ccc1-c1c[nH]c(-c2cc(Cl)cc(Cl)c2)n1` [Example 125], the melting point is reported as 161 to 163 °C. In the case of `COc1cc(-c2c[nH]c(-c3ccc(Cl)cc3)n2)ccc1OCc1ccc(C#N)cc1` [Example 77], the melting point is reported as 231 to 232 °C. For `COc1cc(OCc2ccc(Cl)cc2F)ccc1-c1c[nH]c(-c2ccc(C)cc2)n1` [Example 136], the melting point was 152 to 155 °C. With `COc1cc(OCc2ccc(C#N)cc2)ccc1-c1c[nH]c(-c2cccc(C)c2)n1.Cl` the melting point was 243 to 246 °C. `COc1cc(-c2c[nH]c(-c3ccc(C(F)(F)F)cc3)n2)ccc1O` [Example 41] gave a melting point of 197 to 198 °C. For `COc1cc(OCc2ccc(Cl)cc2F)ccc1-c1c[nH]c(-c2cccc(C)c2)n1` [Example 135], the melting point was 115 to 120 °C. In the case of `COc1cc(OCc2ccccc2)ccc1-c1c[nH]c(-c2ccc(Cl)cc2)n1` [Example 123], the melting point is reported as 160 to 163 °C. Molecule `COc1cc(OCc2ccccc2)ccc1-c1c[nH]c(-c2ccc(C(C)(C)C)cc2)n1` [Example 129] has a melting point of 227 to 229 °C. For `COc1cc(O)ccc1-c1c[nH]c(-c2ccc(C(F)(F)F)cc2)n1` [Example 106], the melting point was > 250 °C. With `COc1cccc(-c2nc(-c3ccc(OCc4ccc(Cl)cc4)cc3OC)c[nH]2)c1.Cl` the melting point was 256 to 258 °C. With `COc1cc(OCc2ccc(Cl)cc2)ccc1-c1c[nH]c(-c2cccs2)n1` [Example 22] the melting point was 107 to 109 °C. Work on `COc1cc(OCc2ccc(Cl)cc2F)ccc1-c1c[nH]c(-c2ccc(Cl)cc2)n1` [Example 131] yielded a melting point of 191 to 194 °C. `CCOC(=O)c1ccc(-c2nc(-c3ccc(OCc4ccccc4)c(OC)c3)c[nH]2)cc1.Cl` showed a melting point of 211 to 213 °C. Work on `COc1cc(OCc2ccc(C#N)cc2)ccc1-c1c[nH]c(-c2ccccc2)n1` [Example 12] yielded a melting point of 99 to 103 °C. `COc1cc(OCc2ccc(C#N)cc2)ccc1-c1c[nH]c(-c2cccs2)n1` [Example 21] gave a melting point of 193 to 196 °C. In the case of `COc1cc(OCc2ccc(Cl)cc2F)ccc1-c1c[nH]c(-c2ccc(F)c(F)c2)n1.Cl`, the melting point is reported as 251 to 255 °C. `COc1ccc(-c2nc(-c3ccc(OCc4ccccc4)c(OC)c3)c[nH]2)cc1` [Example 27] gave a melting point of 146 to 148 °C. With `COc1cc(-c2c[nH]c(-c3cccs3)n2)ccc1OCc1ccc(C#N)cc1` [Example 64] the melting point was 192 to 193 °C. `COc1cc(-c2cnc(-c3cccs3)[nH]2)ccc1OCc1ccccc1` [Example 14] gave a melting point of 178 to 181 °C. With `COc1cc(OCc2ccccc2)ccc1-c1c[nH]c(-c2cccs2)n1.Cl` the melting point was 139 to 142 °C. For `COc1cc(OCc2ccc(C#N)cc2)ccc1-c1c[nH]c(-c2cc(Cl)cc(Cl)c2)n1.Cl`, the melting point was > 250 °C. Molecule `COc1cc(OCc2ccc(Cl)cc2)ccc1-c1c[nH]c(-c2ccc(C)cc2)n1.Cl` has a melting point of 241 to 244 °C. In the case of `COc1cc(-c2nc(-c3ccc(C(F)(F)F)cc3)[nH]c2C)ccc1OCc1ccccc1` [Example 34], the melting point is reported as 160 to 165 °C. Molecule `COc1cc(OCc2ccc(Br)cc2F)ccc1-c1c[nH]c(-c2ccc(F)c(F)c2)n1` [Example 89] has a melting point of 263 to 265 °C. Work on `COc1cc(-c2c[nH]c(-c3ccccc3)n2)ccc1OCc1ccc(C#N)cc1` [Example 63] yielded a melting point of 193 to 196 °C. `COc1cc(-c2c[nH]c(-c3ccsc3)n2)ccc1OCc1ccccc1` [Example 25] showed a melting point of 132 to 135 °C. Work on `COc1cc(OCc2ccc(Br)cc2F)ccc1-c1c[nH]c(-c2cccc(F)c2)n1.Cl` yielded a melting point of 240 to 245 °C. With `COc1cc(O)ccc1-c1c[nH]c(-c2ccc(F)cc2)n1` [Example 107] the melting point was > 250 °C. In the case of `COc1cc(-c2c[nH]c(-c3ccc(C(F)(F)F)cc3)n2)ccc1OCc1ccc(Br)cc1F` (as salt: hydrochloride) [Example 1, 4-[4-(4-bromo-2-fluorobenzyloxy)-3-methoxyphenyl]-2-[4-(trifluoromethyl)phenyl]-1H-imidazole hydrochloride], the melting point is reported as 174 to 175 °C. Molecule `COc1cc(O)ccc1-c1c[nH]c(-c2ccc(C)cc2)n1` [Example 108] has a melting point of 260 to 262 °C. With `COc1cc(OCc2ccccc2)ccc1-c1c[nH]c(-c2cccc(C)c2)n1.Cl` the melting point was 194 to 196 °C. Molecule `COc1cc(OCc2ccc(C#N)cc2)ccc1-c1c[nH]c(-c2cccc(F)c2)n1` [Example 60] has a melting point of 257 to 260 °C. For `COc1cc(-c2c[nH]c(C(C)C)n2)ccc1OCc1ccccc1` [Example 29], the melting point was 148 to 152 °C. Work on `COc1cc(-c2cn(C)c(-c3ccccc3)n2)ccc1OCc1ccccc1` [Example 8] yielded a melting point of 146 to 147 °C. In the case of `COc1cc(OCc2ccc(Br)cc2F)ccc1-c1c[nH]c(-c2cccc(C)c2)n1` [Example 95], the melting point is reported as 120 to 123 °C. With `COc1cc(-c2c[nH]c(-c3cccc(F)c3)n2)ccc1OCc1ccc(Br)cc1F.Cl` the melting point was 244 to 247 °C. `COc1cc(OCc2ccc(Cl)cc2F)ccc1-c1c[nH]c(-c2ccc(Cl)c(Cl)c2)n1.Cl` gave a melting point of 254 to 258 °C. Molecule `COc1cc(-c2c[nH]c(C)n2)ccc1OCc1ccccc1` [Example 40] has a melting point of 159 to 163 °C. In the case of `COc1cc(-c2c[nH]c(C(C)C)n2)ccc1OCc1ccc(Cl)cc1` [Example 35], the melting point is reported as 126 to 128 °C. `COc1cc(-c2c[nH]c(-c3ccc(C(=O)O)cc3)n2)ccc1OCc1ccccc1.Cl` gave a melting point of 241 to 243 °C. Molecule `COc1cc(OCc2ccc(Cl)cc2)ccc1-c1c[nH]c(-c2cccc(C)c2)n1.Cl` has a melting point of 217 to 220 °C. Work on `COc1cc(-c2c[nH]c(-c3ccc(F)cc3)n2)ccc1O` [Example 44] yielded a melting point of 116 to 123 °C. Work on `COc1cc(O)ccc1-c1c[nH]c(-c2ccccc2)n1` [Example 105] yielded a melting point of 232 to 235 °C. Molecule `COc1cc(OCc2ccccc2)ccc1-c1c[nH]c(-c2cccc(Cl)c2)n1` [Example 122] has a melting point of 142 to 145 °C. `COc1cc(-c2cn(C)c(-c3ccc(C(F)(F)F)cc3)n2)ccc1OCc1ccccc1` [Example 6] showed a melting point of 138 to 139 °C.
